Laboratory results taken from article PMC2363502.

What was measured:
[1] = system: L-1210 leukaemia; design: method as in Dorhout et al, 1995; settings: treated L-1210 leukaemia-bearing animals; ref Dorhout et al, 1995; cited from earlier work
[2] = system: variety of different tumour cell lines; design: method as in H Mett, unpublished data; settings: including multi-drug-resistant and highly metastatic variants; ref H Mett, unpublished data; cited from earlier work
[3] = phase I safety and tolerability, 120 h continuous infusion every 4 weeks
[4] = Table 3, 6 mg m-2 cycle-1, 4 patients studied
[5] = Table 3, 12 mg m-2 cycle-1, 3 patients studied
[6] = Table 3, 24 mg m-2 cycle-1, 3 patients studied
[7] = Table 3, 400 mg m-2 cycle-1, 6 patients studied
[8] = Table 3, 550 mg m-2 cycle-1, 6 patients studied
[9] = Table 3, 700 mg m-2 cycle-1, 5 patients studied
[10] = Table 3, all dose levels, 39 patients
[11] = Table 3, all dose levels, 39 patients, incl. combination
[12] = Table 4, after infusion (day 6-28), 550 mg m-2 cycle-1, 6 patients studied
[13] = Table 4, after infusion (day 6-28), 700 mg m-2 cycle-1, 5 patients studied
[14] = Table 4, after infusion (day 6-28), all dose levels, 39 patients
[15] = Table 4, after infusion (days 6-28), 3 mg m-2 cycle-1, 3 patients studied
[16] = Table 4, after infusion (days 6-28), 6 mg m-2 cycle-1, 4 patients studied

SMILES: N=C(N)c1cccc2c1CCC2=NN=C(N)N [SAM486A]
- SAMDC activity and putrescine pools in tumours [1]: decreased SAMDC activity and elevated putrescine pools
- growth inhibitory IC50 [2]: micromolar range
- patients with grade 4 granulocytopenia ([3]; 550 mg m-2 cycle-1, six patients): three
- maximum tolerated dose (MTD) ([3]; 120 h continuous infusion every 4 weeks): 400 mg m-2 cycle-1
- correlation coefficient AUC vs granulocytopenia ([3]; Figure 4): 0.6931
- correlation coefficient dose vs granulocytopenia ([3]; Figure 4): 0.5814
- Haemoglobin grade 1-4, no. of patients ([3]; Table 3, 3 mg m-2 cycle-1, 3 patients studied): 2 patients
- Haemoglobin grade 1-4, no. of patients [3, 4]: 2 patients
- Thrombocytes (platelets) grade 1-4, no. of patients [3, 4]: 1 patients
- Thrombocytes grade 3-4, no. of patients [3, 4]: 1 patients
- Haemoglobin grade 1-4, no. of patients [3, 5]: 2 patients
- Haemoglobin grade 3-4, no. of patients [3, 5]: 1 patients
- Haemoglobin grade 1-4, no. of patients [3, 6]: 3 patients
- Haemoglobin grade 3-4, no. of patients [3, 6]: 1 patients
- Haemoglobin grade 1-4, no. of patients ([3]; Table 3, 48 mg m-2 cycle-1, 4 patients studied): 2 patients
- Haemoglobin grade 1-4, no. of patients ([3]; Table 3, 96 mg m-2 cycle-1, 3 patients studied): 1 patients
- Leukocytes (WBC) grade 1-4, no. of patients ([3]; Table 3, 200 mg m-2 cycle-1, 2 patients studied): 1 patients
- Granulocytes (AGC) grade 1-4, no. of patients [3, 7]: 2 patients
- Granulocytes (AGC) grade 3-4, no. of patients [3, 7]: 1 patients
- Haemoglobin grade 1-4, no. of patients [3, 7]: 3 patients
- Leukocytes (WBC) grade 1-4, no. of patients [3, 7]: 2 patients
- Granulocytes (AGC) grade 1-4, no. of patients [3, 8]: 4 patients
- Granulocytes (AGC) grade 3-4, no. of patients [3, 8]: 4 patients
- Haemoglobin grade 1-4, no. of patients [3, 8]: 4 patients
- Haemoglobin grade 3-4, no. of patients [3, 8]: 1 patients
- Leukocytes (WBC) grade 1-4, no. of patients [3, 8]: 5 patients
- Leukocytes (WBC) grade 3-4, no. of patients [3, 8]: 3 patients
- Thrombocytes (platelets) grade 1-4, no. of patients [3, 8]: 1 patients
- Thrombocytes grade 3-4, no. of patients [3, 8]: 1 patients
- Granulocytes (AGC) grade 1-4, no. of patients [3, 9]: 4 patients
- Granulocytes (AGC) grade 3-4, no. of patients [3, 9]: 3 patients
- Haemoglobin grade 1-4, no. of patients [3, 9]: 2 patients
- Haemoglobin grade 3-4, no. of patients [3, 9]: 1 patients
- Leukocytes (WBC) grade 1-4, no. of patients [3, 9]: 4 patients
- Leukocytes (WBC) grade 3-4, no. of patients [3, 9]: 3 patients
- Thrombocytes (platelets) grade 1-4, no. of patients [3, 9]: 2 patients
- Haemoglobin grade 1-4, Total (%) [3, 10]: 21 (54) patients (%)
- Haemoglobin grade 3-4, Total (%) [3, 10]: 4 (10) patients (%)
- Thrombocytes grade 3-4, Total (%) [3, 10]: 2 (5) patients (%)
- Granulocytes (AGC) grade 1-4, Total (%) [3, 11]: 12 (31) patients (%)
- Granulocytes (AGC) grade 3-4, Total (%) [3, 11]: 9 (23) patients (%)
- Leukocytes (WBC) grade 1-4, Total (%) [3, 11]: 14 (36) patients (%)
- Leukocytes (WBC) grade 3-4, Total (%) [3, 11]: 7 (18) patients (%)
- Fatigue grade 3-4, no. of patients ([3]; Table 4, after infusion (day 6-28), 400 mg m-2 cycle-1, 6 patients studied): 1 patients
- Anorexia grade 3-4, no. of patients [3, 12]: 1 patients
- Atrial fibrillation grade 3-4, no. of patients [3, 12]: 1 patients
- Condition aggravated grade 3-4, no. of patients [3, 12]: 1 patients
- Dementia grade 3-4, no. of patients [3, 13]: 1 patients
- Dyspnea grade 3-4, no. of patients [3, 13]: 1 patients
- Fatigue grade 3-4, no. of patients [3, 13]: 1 patients
- Somnolence grade 3-4, no. of patients [3, 13]: 1 patients
- Vesicular rash grade 3-4, no. of patients [3, 13]: 1 patients
- Anorexia grade 3-4, Total (%) [3, 14]: 1 (3) patients (%)
- Atrial fibrillation grade 3-4, Total (%) [3, 14]: 1 (3) patients (%)
- Condition aggravated grade 3-4, Total (%) [3, 14]: 1 (3) patients (%)
- Dementia grade 3-4, Total (%) [3, 14]: 1 (3) patients (%)
- Dyspnea grade 3-4, Total (%) [3, 14]: 1 (3) patients (%)
- Fatigue grade 3-4, Total (%) [3, 14]: 2 (5) patients (%)
- Somnolence grade 3-4, Total (%) [3, 14]: 1 (3) patients (%)
- Vesicular rash grade 3-4, Total (%) [3, 14]: 1 (3) patients (%)
- Mucositis nos grade 3-4, Total (%) ([3]; Table 4, after infusion (day 6-28), all dose levels, 39 patients, incl. combination): 1 (3) patients (%)
- Anorexia grade 1-4, no. of patients [3, 15]: 1 patients
- Fatigue grade 1-4, no. of patients [3, 15]: 1 patients
- Fatigue grade 1-4, no. of patients [3, 16]: 1 patients
- Nausea grade 1-4, no. of patients [3, 16]: 1 patients
